{"source": "patent US11634447B2", "about": "(priority 2012, dated 2023)", "data": [{"tested_on": "bacterial strain LF82 binding to the glycoprotein BSA-(Mannose)3", "test": "Bacterial Binding Assay (BBA)", "type": "cell-based, Escherichia coli", "settings": "read-out: Bacterial Binding Assay IC50, LF82/Luciferase strain binding to BSA-(Man)3 coated plates, luminescence", "procedure,_shortened": "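Inhibition of LF82/luciferase E. coli adhesion is read as luminescence after washing off unbound cells. Compound and bacteria (10^7 per well) are co-incubated 40-75 min at room temperature on wells coated with 0.5-2 μg/mL BSA-(Man)3, with BSA-only wells as background; IC50 values derived.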", "units": {"IC50": "nM"}, "values": [{"smiles": "Cc1cc(C#C[C@H]2O[C@H](CO)[C@@H](O)[C@H](O)[C@@H]2O)ccc1C#C[C@H]1O[C@H](CO)[C@@H](O)[C@H](O)[C@@H]1O", "note": "[Compound 104, (2R,3S,4R,5S,6R)-2-(hydroxymethyl)-6-[2-[3-methyl-4-[2-[(2R,3S,4R,5S,6R)-3,4,5-trihydroxy-6-(hydroxymethyl)tetrahydropyran-2-yl]ethynyl]phenyl]ethynyl]tetrahydropyran-3,4,5-triol]", "IC50": 34}, {"smiles": "OCc1cc(C#C[C@H]2O[C@H](CO)[C@@H](O)[C@H](O)[C@@H]2O)c(CO)cc1C#C[C@H]1O[C@H](CO)[C@@H](O)[C@H](O)[C@@H]1O", "note": "[Compound 85, (2R,3S,4R,5S,6R)-2-[2-[2,5-bis(hydroxymethyl)-4-[2-[(2R,3S,4R,5S,6R)-3,4,5-trihydroxy-6-(hydroxymethyl)tetrahydropyran-2-yl]ethynyl]phenyl]ethynyl]-6-(hydroxymethyl)tetrahydropyran-3,4,5-triol]", "IC50": 160}, {"smiles": "OC[C@H]1O[C@H](C#Cc2ccc3c(c2)C(=NO)c2cc(C#C[C@H]4O[C@H](CO)[C@@H](O)[C@H](O)[C@@H]4O)ccc2-3)[C@@H](O)[C@@H](O)[C@@H]1O", "note": "[Compound 163, 2,7-bis[2-[(2R,3S,4R,5S,6R)-3,4,5-trihydroxy-6-(hydroxymethyl)tetrahydropyran-2-yl]ethynyl]fluoren-9-one oxime]", "IC50": 18}, {"smiles": "CC1(O)c2cc(C#C[C@H]3O[C@H](CO)[C@@H](O)[C@H](O)[C@@H]3O)ccc2-c2ccc(C#C[C@H]3O[C@H](CO)[C@@H](O)[C@H](O)[C@@H]3O)cc21", "note": "[Compound 115, (2R,3S,4R,5S,6R)-2-(hydroxymethyl)-6-[2-[9-hydroxy-9-methyl-7-[2-[(2R,3S,4R,5S,6R)-3,4,5-trihydroxy-6-(hydroxymethyl)tetrahydropyran-2-yl]ethynyl]fluoren-2-yl]ethynyl]tetrahydropyran-3,4,5-triol]", "IC50": 3.9}, {"smiles": "CCC1(O)c2cc(C#C[C@H]3O[C@H](CO)[C@@H](O)[C@H](O)[C@@H]3O)ccc2-c2ccc(C#C[C@H]3O[C@H](CO)[C@@H](O)[C@H](O)[C@@H]3O)cc21", "note": "[Compound 166, (2R,3S,4R,5S,6R)-2-[2-[9-ethyl-9-hydroxy-7-[2-[(2R,3S,4R,5S,6R)-3,4,5-trihydroxy-6-(hydroxymethyl)tetrahydropyran-2-yl]ethynyl]fluoren-2-yl]ethynyl]-6-(hydroxymethyl)tetrahydropyran-3,4,5-triol]", "IC50": 3}, {"smiles": "OC[C@H]1O[C@H](C#Cc2ccc(C#C[C@H]3O[C@H](CO)[C@@H](O)[C@H](O)[C@@H]3O)c3[nH]ncc23)[C@@H](O)[C@@H](O)[C@@H]1O", "note": "[Compound 171, (2R,3S,4R,5S,6R)-2-(hydroxymethyl)-6-[2-[7-[2-[(2R,3S,4R,5S,6R)-3,4,5-trihydroxy-6-(hydroxymethyl)tetrahydropyran-2-yl]ethynyl]-1H-indazol-4-yl]ethynyl]tetrahydropyran-3,4,5-triol]", "IC50": 13}, {"smiles": "OCCn1c2cc(C#C[C@H]3O[C@H](CO)[C@@H](O)[C@H](O)[C@@H]3O)ccc2c2ccc(C#C[C@H]3O[C@H](CO)[C@@H](O)[C@H](O)[C@@H]3O)cc21", "note": "[Compound 182, (2R,3 S,4R,5S,6R)-2-[2-[9-(2-Hydroxyethyl)-7-[2-[(2R,3 S,4R,5S,6R)-3,4,5-trihydroxy-6-(hydroxymethyl)tetrahydropyran-2-yl]ethynyl]carbazol-2-yl]ethynyl]-6-(hydroxymethyl)tetrahydropyran-3,4,5-triol]", "IC50": 1.4}, {"smiles": "O=C(c1ccn[nH]1)N1CCC2(CC1)c1cc(C#C[C@H]3O[C@H](CO)[C@@H](O)[C@H](O)[C@@H]3O)ccc1-c1ccc(C#C[C@H]3O[C@H](CO)[C@@H](O)[C@H](O)[C@@H]3O)cc12", "note": "[Compound 231]", "IC50": 0.08}, {"smiles": "OCCc1cc(C#C[C@H]2O[C@H](CO)[C@@H](O)[C@H](O)[C@@H]2O)ccc1C#C[C@H]1O[C@H](CO)[C@@H](O)[C@H](O)[C@@H]1O", "note": "[Compound 94, (2R,3S,4R,5S,6R)-2-[2-[3-(2-hydroxyethyl)-4-[2-[(2R,3S,4R,5S,6R)-3,4,5-trihydroxy-6-(hydroxymethyl)tetrahydropyran-2-yl]ethynyl]phenyl]ethynyl]-6-(hydroxymethyl)tetrahydropyran-3,4,5-triol]", "IC50": 20}, {"smiles": "Cc1cc(-c2ccc([C@H]3O[C@H](CO)[C@@H](O)[C@H](O)[C@@H]3O)cc2)ccc1[C@H]1O[C@H](CO)[C@@H](O)[C@H](O)[C@@H]1O", "note": "[Compound 64]", "IC50": 15}, {"smiles": "O=C(c1c(C#C[C@H]2O[C@H](CO)[C@@H](O)[C@H](O)[C@@H]2O)ccc2c1C1(CCNCC1)c1cc(C#C[C@H]3O[C@H](CO)[C@@H](O)[C@H](O)[C@@H]3O)ccc1-2)[C@H]1CCCO1", "note": "[Compound 233, [2,7-bis[2-[(2R,3S,4R,5S,6R)-3,4,5-trihydroxy-6-(hydroxymethyl)tetrahydropyran-2-yl]ethynyl]spiro[fluorene-9,4piperidine]-1yl]-[(2R)-tetrahydrofuran-2-yl]methanone]", "IC50": 0.05}, {"smiles": "Cn1c2cc(C#C[C@H]3O[C@H](CO)[C@@H](O)[C@H](O)[C@@H]3O)ccc2c2ccc(C#C[C@H]3O[C@H](CO)[C@@H](O)[C@H](O)[C@@H]3O)cc21", "note": "[Compound 112, (2R,3S,4R,5S,6R)-2-(hydroxymethyl)-6-[2-[9-methyl-7-[2-[(2R,3S,4R,5S,6R)-3,4,5-trihydroxy-6-(hydroxymethyl)tetrahydropyran-2-yl]ethynyl]carbazol-2-yl]ethynyl]tetrahydropyran-3,4,5-triol]", "IC50": 17}, {"smiles": "OCCC1(CCO)c2cc(C#C[C@H]3O[C@H](CO)[C@@H](O)[C@H](O)[C@@H]3O)ccc2-c2ccc(C#C[C@H]3O[C@H](CO)[C@@H](O)[C@H](O)[C@@H]3O)cc21", "note": "[Compound 193, (2R,3S,4R,5S,6R)-2-[2-[9,9-Bis(2-hydroxyethyl)-7-[2-[(2R,3S,4R,5S,6R)-3,4,5-trihydroxy-6-(hydroxymethyl)tetrahydropyran-2-yl]ethynyl]fluoren-2-yl]ethynyl]-6-(hydroxymethyl)tetrahydropyran-3,4,5-triol]", "IC50": 0.27}, {"smiles": "CN1CCC(n2c3cc(C#C[C@H]4O[C@H](CO)[C@@H](O)[C@H](O)[C@@H]4O)ccc3c3ccc(C#C[C@H]4O[C@H](CO)[C@@H](O)[C@H](O)[C@@H]4O)cc32)CC1", "note": "[Compound 187, (2R,3S,4R,5S,6R)-2-(hydroxymethyl)-6-[2-[9-(1-methyl-4-piperidyl)-7-[2-[(2R,3S,4R,5S,6R)-3,4,5-trihydroxy-6-(hydroxymethyl)tetrahydropyran-2-yl]ethynyl]carbazol-2-yl]ethynyl]tetrahydropyran-3,4,5-triol]", "IC50": 1}, {"smiles": "OC[C@H]1O[C@H](c2ccc(-c3cccc(-c4ccc([C@H]5O[C@H](CO)[C@@H](O)[C@H](O)[C@@H]5O)cc4)c3)cc2)[C@@H](O)[C@@H](O)[C@@H]1O", "note": "[Compound 66]", "IC50": 34}, {"smiles": "O=C1CCCN1CCn1c2cc(C#C[C@H]3O[C@H](CO)[C@@H](O)[C@H](O)[C@@H]3O)ccc2c2ccc(C#C[C@H]3O[C@H](CO)[C@@H](O)[C@H](O)[C@@H]3O)cc21", "note": "[Compound 190, 1-[2-[2,7-bis[2-[(2R,3S,4R,5S,6R)-3,4,5-trihydroxy-6-(hydroxymethyl)tetrahydropyran-2-yl]ethynyl]carbazol-9-yl]ethyl]pyrrolidin-2-one]", "IC50": 1.1}, {"smiles": "Cc1c(C#C[C@H]2O[C@H](CO)[C@@H](O)[C@H](O)[C@@H]2O)cccc1[C@H]1O[C@H](CO)[C@@H](O)[C@H](O)[C@@H]1O", "note": "[Compound 148]", "IC50": 130}, {"smiles": "OC[C@H]1O[C@H](C#Cc2ccc3c(c2)C(O)c2cc(C#C[C@H]4O[C@H](CO)[C@@H](O)[C@H](O)[C@@H]4O)ccc2-3)[C@@H](O)[C@@H](O)[C@@H]1O", "note": "(stereo partly drawn) [Compound 195, (2R,3S,4R,5S,6R)-2-(hydroxymethyl)-6-[2-[9-hydroxy-7-[2-[(2R,3S,4R,5S,6R)-3,4,5-trihydroxy-6-(hydroxymethyl)tetrahydropyran-2-yl]ethynyl]-9H-fluoren-2-yl]ethynyl]tetrahydropyran-3,4,5-triol]", "IC50": 18}, {"smiles": "Cc1cc([C@H]2O[C@H](CO)[C@@H](O)[C@H](O)[C@@H]2O)ccc1-c1ccc([C@H]2O[C@H](CO)[C@@H](O)[C@H](O)[C@@H]2O)cc1", "note": "[Compound 63]", "IC50": 112}, {"smiles": "Cc1cc(C#C[C@H]2O[C@H](CO)[C@@H](O)[C@H](O)[C@@H]2O)c(Cl)cc1C#C[C@H]1O[C@H](CO)[C@@H](O)[C@H](O)[C@@H]1O", "note": "[Compound 90, (2R,3S,4R,5S,6R)-2-[2-[2-chloro-5-methy1-4-[2-[(2R,3S,4R,5S,6R)-3,4,5-trihydroxy-6-(hydroxymethyl)tetrahydropyran-2-yl]ethynyl]phenyl]ethynyl]-6-(hydroxymethyl)tetrahydropyran-3,4,5-triol]", "IC50": 36}, {"smiles": "OC[C@H]1O[C@H](C#Cc2coc(C#C[C@H]3O[C@H](CO)[C@@H](O)[C@H](O)[C@@H]3O)n2)[C@@H](O)[C@@H](O)[C@@H]1O", "note": "[Compound 129, (2R,3S,4R,5S,6R)-2-(hydroxymethyl)-6-[2-[2-[2-[(2R,3S,4R,5S,6R)-3,4,5-trihydroxy-6-(hydroxymethyl)tetrahydropyran-2-yl]ethynyl]oxazol-4-yl]ethynyl]tetrahydropyran-3,4,5-triol]", "IC50": 1240}, {"smiles": "OC[C@H]1O[C@H](C#Cc2ccc3c(c2)C2(CCNCC2)c2cc(C#C[C@H]4O[C@H](CO)[C@@H](O)[C@H](O)[C@@H]4O)ccc2-3)[C@@H](O)[C@@H](O)[C@@H]1O", "note": "[Compound 192, (2R,3S,4R,5S,6R)-2-(Hydroxymethyl)-6-[2-[7-[2-[(2R,3S,4R,5S,6R)-3,4,5-trihydroxy-6-(hydroxymethyl)tetrahydropyran-2-yl]ethynyl]spiro[fluorene-9,4piperidine]-2-yl]ethynyl]tetrahydropyran-3,4,5-triol]", "IC50": 3.2}, {"smiles": "OC[C@H]1O[C@H](C#Cc2ccc3c(c2)c2cc(C#C[C@H]4O[C@H](CO)[C@@H](O)[C@H](O)[C@@H]4O)ccc2n3-c2ccccc2)[C@@H](O)[C@@H](O)[C@@H]1O", "note": "[Compound 164]", "IC50": 35}, {"smiles": "Cc1cc(-c2ccc([C@H]3O[C@H](CO)[C@@H](O)[C@H](O)[C@@H]3O)c(C)c2)ccc1[C@H]1O[C@H](CO)[C@@H](O)[C@H](O)[C@@H]1O", "note": "[Compound 68]", "IC50": 7.7}]}]}
